Test results from ChEMBL document CHEMBL1687786, “Diversity of staphylococcal cassette chromosome mec elements in predominant methicillin-resistant Staphylococcus aureus clones in a small geographic area” (2010).

Assays:
Assay type in all cases: functional
Staphylococcus aureus [1] = test: Antimicrobial activity against Staphylococcus aureus clone 2-2 harboring staphylococcal cassette chromosome mec element type 1 assessed as percent susceptible isolates by kirby-bauer method
Staphylococcus aureus [2] = test: Antimicrobial activity against Staphylococcus aureus clone 1-1 harboring staphylococcal cassette chromosome mec element type 4 assessed as percent susceptible isolates by kirby-bauer method
Staphylococcus aureus [3] = test: Antimicrobial activity against Staphylococcus aureus clone 3-3 harboring staphylococcal cassette chromosome mec element type 4 assessed as percent susceptible isolates by kirby-bauer method
Staphylococcus aureus [4] = test: Antimicrobial activity against Staphylococcus aureus clone 4-4 harboring staphylococcal cassette chromosome mec element type 2 assessed as percent susceptible isolates by kirby-bauer method
Staphylococcus aureus [5] = test: Antimicrobial activity against Staphylococcus aureus clone 2-2 harboring staphylococcal cassette chromosome mec element type 6 assessed as percent susceptible isolates by kirby-bauer method
Staphylococcus aureus [6] = test: Antimicrobial activity against Staphylococcus aureus clone 1-1 harboring staphylococcal cassette chromosome mec element type 5 assessed as percent susceptible isolates by kirby-bauer method
Staphylococcus aureus [7] = test: Antimicrobial activity against Staphylococcus aureus clone 2-2 harboring staphylococcal cassette chromosome mec element type 2 assessed as percent susceptible isolates by kirby-bauer method
Staphylococcus aureus [8] = test: Antimicrobial activity against Staphylococcus aureus clone 2-2 harboring staphylococcal cassette chromosome mec element type U3 assessed as percent susceptible isolates by kirby-bauer method
Staphylococcus aureus [9] = test: Antimicrobial activity against Staphylococcus aureus clone 4-4 harboring staphylococcal cassette chromosome mec element type U3 assessed as percent susceptible isolates by kirby-bauer method
Staphylococcus aureus [10] = test: Antimicrobial activity against Staphylococcus aureus clone 2-2 harboring staphylococcal cassette chromosome mec element type U5 assessed as percent susceptible isolates by kirby-bauer method
Staphylococcus aureus [11] = test: Antimicrobial activity against Staphylococcus aureus clone 3-3 harboring staphylococcal cassette chromosome mec element type 1 assessed as percent susceptible isolates by kirby-bauer method
Staphylococcus aureus [12] = test: Antimicrobial activity against Staphylococcus aureus clone 3-3 harboring staphylococcal cassette chromosome mec element type U6 assessed as percent susceptible isolates by kirby-bauer method
Staphylococcus aureus [13] = test: Antimicrobial activity against Staphylococcus aureus clone 3-3 harboring staphylococcal cassette chromosome mec element type 2 assessed as percent susceptible isolates by kirby-bauer method
Staphylococcus aureus [14] = test: Antimicrobial activity against Staphylococcus aureus clone 4-4 harboring staphylococcal cassette chromosome mec element type 1 assessed as percent susceptible isolates by kirby-bauer method
Staphylococcus aureus [15] = test: Antimicrobial activity against Staphylococcus aureus clone 3-3 harboring staphylococcal cassette chromosome mec element type U1 assessed as percent susceptible isolates by kirby-bauer method
Staphylococcus aureus [16] = test: Antimicrobial activity against Staphylococcus aureus clone 1-1 harboring staphylococcal cassette chromosome mec element type U assessed as percent susceptible isolates by kirby-bauer method
Staphylococcus aureus [17] = test: Antimicrobial activity against Staphylococcus aureus clone 3-3 harboring staphylococcal cassette chromosome mec element type 6 assessed as percent susceptible isolates by kirby-bauer method
Staphylococcus aureus [18] = test: Antimicrobial activity against Staphylococcus aureus clone 2-2 harboring staphylococcal cassette chromosome mec element type 5 assessed as percent susceptible isolates by kirby-bauer method
Staphylococcus aureus [19] = test: Antimicrobial activity against Staphylococcus aureus clone 4-4 harboring staphylococcal cassette chromosome mec element type 4 assessed as percent susceptible isolates by kirby-bauer method
Staphylococcus aureus [20] = test: Antimicrobial activity against Staphylococcus aureus clone 2-2 harboring staphylococcal cassette chromosome mec element type 4 assessed as percent susceptible isolates by kirby-bauer method
Staphylococcus aureus [21] = test: Antimicrobial activity against Staphylococcus aureus clone 4-4 harboring staphylococcal cassette chromosome mec element type 5 assessed as percent susceptible isolates by kirby-bauer method
Staphylococcus aureus [22] = test: Antimicrobial activity against Staphylococcus aureus clone 3-3 harboring staphylococcal cassette chromosome mec element type U8 assessed as percent susceptible isolates by kirby-bauer method

Row | Molecule | Activity (Staphylococcus aureus [1]) | Activity (Staphylococcus aureus [2]) | Activity (Staphylococcus aureus [3]) | Activity (Staphylococcus aureus [4]) | Activity (Staphylococcus aureus [5]) | Activity (Staphylococcus aureus [6]) | Activity (Staphylococcus aureus [7]) | Activity (Staphylococcus aureus [8]) | Activity (Staphylococcus aureus [9]) | Activity (Staphylococcus aureus [10]) | Activity (Staphylococcus aureus [11]) | Activity (Staphylococcus aureus [12]) | Activity (Staphylococcus aureus [14]) | Activity (Staphylococcus aureus [15]) | Activity (Staphylococcus aureus [16]) | Activity (Staphylococcus aureus [17]) | Activity (Staphylococcus aureus [18]) | Activity (Staphylococcus aureus [20]) | Activity (Staphylococcus aureus [21]) | Activity (Staphylococcus aureus [22]) | further results
1 | CO/N=C(\C(=O)N[C@@H]1C(=O)N2C(C(=O)O)=C(CSc3nc(=O)c(O)nn3C)CS[C@H]12)c1csc(N)n1 [CEFTRIAXONE] | 11% | 2% | 0% | 0% | 0% | 0% | 0% | 0% | 0% | 0% | 0% | 0% | 0% | 0% | 0% | 0% | 11% | 0% | 0% |  | Activity (Staphylococcus aureus [13]): 0%; Activity (Staphylococcus aureus [19]): 0%
2 | CCC[C@@H]1C[C@@H](C(=O)N[C@@H]([C@H]2O[C@H](SC)[C@H](O)[C@@H](O)[C@H]2O)[C@H](C)Cl)N(C)C1 [CLINDAMYCIN] | 89% | 98% | 79% | 0% | 100% | 100% | 38% | 100% | 100% | 100% | 0% | 50% | 1% | 100% | 100% | 100% | 89% | 56% | 100% | 95% | 
3 | CC[C@H]1OC(=O)[C@H](C)[C@@H](O[C@H]2C[C@@](C)(OC)[C@@H](O)[C@H](C)O2)[C@H](C)[C@@H](O[C@@H]2O[C@H](C)C[C@H](N(C)C)[C@H]2O)[C@](C)(O)C[C@@H](C)C(=O)[C@H](C)[C@@H](O)[C@]1(C)O [ERYTHROMYCIN] | 67% | 98% |  | 0% |  | 100% | 1% | 100% | 0% | 0% | 0% | 50% | 1% | 100% | 100% | 100% | 89% | 39% | 100% | 98% | 
4 | CC(=O)O[C@H]1C[C@@]2(C)[C@@H](C[C@@H](O)[C@H]3[C@@]4(C)CC[C@@H](O)[C@@H](C)[C@@H]4CC[C@@]32C)/C1=C(\CCC=C(C)C)C(=O)O [FUSIDIC ACID] | 0% | 83% | 96% | 100% | 100% | 100% | 98% | 100% | 100% | 100% | 0% | 50% | 99% |  | 0% | 0% | 100% | 100% | 50% | 100% | Activity (Staphylococcus aureus [19]): 100%
5 | CO[C@H]1/C=C/O[C@@]2(C)Oc3c(C)c(O)c4c(O)c(c(/C=N/N5CCN(C)CC5)c(O)c4c3C2=O)NC(=O)/C(C)=C\C=C\[C@H](C)[C@H](O)[C@@H](C)[C@@H](O)[C@@H](C)[C@H](OC(C)=O)[C@@H]1C [RIFAMPIN] | 100% | 100% | 100% | 100% | 100% | 100% | 100% | 100% | 100% | 100% | 100% | 100% | 96% | 100% | 100% | 100% | 100% | 94% | 100% | 100% | Activity (Staphylococcus aureus [13]): 100%; Activity (Staphylococcus aureus [19]): 100%
6 | GENTAMICIN | 100% | 98% | 100% | 3% | 100% | 100% | 100% | 100% | 100% | 100% | 97% | 100% | 95% | 100% | 100% | 100% | 0% | 94% | 100% | 100% | Activity (Staphylococcus aureus [13]): 100%; Activity (Staphylococcus aureus [19]): 100%
